One data set has as its target T1, human MC3R (Homo sapiens, UniProt P41968).
T1 construct: expressed in transfected cells; host or cells: HEK293/CRE-luc/MC3R
Nature of the data set: cAMP accumulation assay (HTRF), antagonist activity at MC3R. In kind it is cell-based. A general note: Cyclic AMP is a second messenger, typically raised through Gs and lowered through Gi signalling.

The target in the next data set is T2, human MC4R (Homo sapiens, UniProt P32245).
T2 construct: expressed in transfected cells; host or cells: HEK293/MC4R/CRE-GFP
The data set is described as follows: cAMP accumulation assay (HTRF), antagonist activity at MC4R. In kind it is cell-based.

The test system of data set [1] is LPS model of cachexia. The data set is described as follows: LPS-induced cachexia assay in rats. In kind it is in vivo, rat. As for the experimental part:
The LPS model uses rats were maintained on a 12 h light/dark schedule with ad libitum access to food and water. Animals were handled daily for a minimum of three consecutive days to decrease non-specific handling stress. On the day of the experiment, individually housed animals received intraperitoneal injections of LPS dissolved in 0.5% low-endotoxin BSA, 0.9% saline or 0.5% BSA in 0.9% saline alone, and were returned to their home cage. The drug or control was administered (ICV, IP, or PO, depending on the type of study) 1-hour after LPS injection.
In the experiments performed in accordance with the present technology, a series of melanocortin receptor antagonist peptides were examined in a bacterial endotoxin inducing cachexia assay. For this assay, a rat is challenged with a single peripheral injection of lipopolysaccharide (LPS). LPS is a heat-stable lipo-polysaccharide, the major component of the outer membrane (capsule) of gram negative bacteria. In non-capsulated strains, it appears as a cell surface protein. LPS produces a strong immune response, including secretion of the proinflammatory cytokines Tumor Necrosis Factor α (TNFα) and interleukin-1 (IL-1). Proinflammatory cytokines are known factors that induce cachexia.
Rats are maintained on a 12-hour light/dark cycle. Animals are handled daily for a minimum of 5 consecutive days to acclimate them to the handling required for the experiment. […] On the day of the experiment, individually housed animals receive intraperitoneal (IP) injections of LPS dissolved in 0.5% low-endotoxin BSA, 0.9% saline or 0.5% BSA in 0.9% saline alone, and returned in their home cage. Melanocortin receptor antagonist peptides were administered (IP or by gavage, depending on the type of study) one hour after the LPS injection. The extent of cachexia is measured by the reduction in food intake, measured every two hours. The cachexia typically lasts only a single day. However, rats lose up to 5% of their body weight during a 12-hour light cycle, making up this loss plus food needed for normal growth during the 12-hour dark cycle. Thus, failure to eat appropriately during a single dark cycle is determinable from the animal's weight and any changes thereof.
A series of melanocortin receptor antagonist peptides were examined in a bacterial toxin inducing cachexia assay. In this assay, a rat was challenged with a single peripheral injection of lipopolysaccharide (LPS), a bacterial toxin that rapidly induces acute cachexia. The extent of cachexia was measured as a reduction in food intake, measured every two hours. The cachexia typically lasts only a single day.

The subject of the next data set is Lewis sarcoma rat. Nature of the data set: Reversal of cachexia-induced lethargy. In kind it is in vivo. Conditions: once-daily peripheral dosing for 48 hours (2 IP doses). The text has this: In animals and humans, cachexia produces “lethargy,” i.e., the aversion to activity. Grossberg et al., J. Neurosci. 31 (31): 11376-11386. […] This therapeutic effect is dependent on a stabilized non-naturally occurring melanocortin analog C-terminal extension. Video recordings characterized control animal behavior as neo-exploratory movement about the cage, i.e., repeated “sniffing” the air to presumably sample odors (e.g., neighboring animals), grooming, and intermittent bouts of eating and drinking. Caldecott-Hazard et al., J. Neurosci. 8 (6): 1951-1961 (1988).
The animal typically remains in one position for an extended period of time (>1 minute). Occasionally it will change position, assuming the new position for an extended period. The rats show no grooming behavior, evident in the appearance of their coat and eyes.

Data set [2] has as its system Lewis sarcoma rat model. Conditions: previously published results; cited from earlier work.
Data set [3] relates to LPS model of cachexia. Conditions: Sutton et al., Peptides 29 (1): 104-111 (2008); cited from earlier work.
Data set [4] deals with urethane-anesthetized rats. Nature of the data set: Cardiovascular effects (MAP, heart rate, ECG) in urethane-anesthetized rats. The following applies: 200 nmol.
Protocol: (§1) These studies were performed in urethane-anesthetized rats, since anesthesia is required for six-lead ECG monitoring. […] Initial selection of doses was guided by FDA exploratory IND studies with a recommendation for at least a 100-fold excess of the human dose.
For data set [5], the system named is Lewis sarcoma rat model. Nature of the data set: Lewis sarcoma rat model of cancer cachexia. The following applies: 2 nmol once per day. In kind it is in vivo. As for the experimental part: This sarcoma is an aggressive form of cancer that produces significant cachexia. Popp et al., Cancer 49 (6): 1212-1220 (1982). In the protocol, “treatment” began 8-days after tumor implantation, with a significant decrease in food intake from baseline. Body composition was determined by NMR prior to tumor implantation, and on the final day of the experiment after tumor resection, by ECHO MRI (NMR). Tumor implantation produces cachexia on or about the sixth day. The non-naturally occurring melanocortin analog or saline was administered after day 8 and continued through day 12.

Data set [6] has as its system urethane-anesthetized rats. Conditions: rat, in vivo.
Protocol: as §1

The values that follow come from US20260098072A1, “METHODS OF STIMULATING APPETITE AND/OR INCREASING BODY WEIGHT USING NON-NATURALLY OCCURRING MELANOCORTIN RECEPTOR ANTAGONIST ANALOGS” (Endevica Bio, Inc., priority 2022, published 2026).

Usually IC50 stands for the concentration that inhibits the measured activity by half.

Entries after “also recorded” stand apart in the source; their conditions may differ. Read-outs that look alike come from different tables or passages of the source. Positions of bridges follow the written chain, without caps; N, C: chain ends. Non-standard residues stand in square brackets, D forms with d. Residues, ends and D or L forms follow the SMILES beside them. No end group written: not given here. d2Nal = N[C@H](Cc1ccc2ccccc2c1)C(=O)O; Nle = CCCC[C@H](N)C(=O)O

T1 sequence (P41968 whole entry): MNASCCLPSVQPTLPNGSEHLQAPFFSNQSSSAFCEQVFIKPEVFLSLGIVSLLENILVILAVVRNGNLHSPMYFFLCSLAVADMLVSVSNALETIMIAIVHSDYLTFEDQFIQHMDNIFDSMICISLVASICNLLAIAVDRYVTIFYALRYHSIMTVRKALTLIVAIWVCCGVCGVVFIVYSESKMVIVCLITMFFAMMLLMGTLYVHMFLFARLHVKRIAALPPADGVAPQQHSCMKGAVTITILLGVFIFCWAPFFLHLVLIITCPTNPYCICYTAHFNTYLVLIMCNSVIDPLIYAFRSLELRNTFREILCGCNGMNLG
T2 sequence (P32245 whole entry): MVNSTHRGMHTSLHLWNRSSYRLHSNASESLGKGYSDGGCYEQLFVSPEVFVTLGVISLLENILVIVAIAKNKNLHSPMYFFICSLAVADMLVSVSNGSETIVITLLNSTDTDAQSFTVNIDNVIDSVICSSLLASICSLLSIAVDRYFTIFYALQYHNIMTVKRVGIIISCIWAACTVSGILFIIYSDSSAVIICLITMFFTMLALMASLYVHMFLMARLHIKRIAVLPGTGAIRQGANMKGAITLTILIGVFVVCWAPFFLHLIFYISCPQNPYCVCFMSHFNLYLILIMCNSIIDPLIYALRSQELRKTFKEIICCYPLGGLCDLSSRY

As for `CCCC[C@H](NC(C)=O)C(=O)N[C@H]1CC(=O)NCCCC[C@@H](C(=O)N2CCC[C@@H]2C(=O)N[C@@H](C(N)=O)C(C)C)NC(=O)[C@H](Cc2c[nH]c3ccccc23)NC(=O)[C@H](CCCNC(=N)N)NC(=O)[C@@H](Cc2ccc3ccccc3c2)NC(=O)[C@@H]2CCCN2C1=O` [TCMCB02, Ac-Nle-c[Asp-Pro-dNal(2′)-Arg-Trp-Lys]-dPro-dVal-NH2] (Ac-[Nle]DP[d2Nal]RWK[dP][dV]-NH2; lactam 2-7), the Emax at human MC3R (HEK293/CRE-luc/MC3R, 0.1 nM to 1,000 nM, read-out: Max Activation %) came to 101%; at human MC4R (HEK293, HEK293/MC4R/CRE-GFP, 0.1 nM to 1,000 nM, read-out: Max Activation %), 120%. In addition, the half-inhibitory concentration (IC50) on human MC3R (HEK293/CRE-luc/MC3R, estimated from dose-response curve) was less than 10 µM; on human MC4R (HEK293/MC4R/CRE-GFP, estimated from dose-response curve) it was less than 10 µM. Further, the “Hill Coefficient” value at human MC3R (dose-response fit, MC3R) came out at 1.03; on human MC4R (dose-response fit, MC4R), 0.69. Besides, the “Top (%)” value at human MC3R (dose-response fit, MC3R) is recorded as 120.45%; on human MC4R (dose-response fit, MC4R) it was 127.47%. Moreover, the “body weight gain overnight” value with LPS model of cachexia [1] (2 mg/kg, IP) is reported as roughly 5%. Besides, the “food intake, 12-hours overnight” value with LPS model of cachexia [1] (2 mg/kg, IP, baseline = previous 4-day average) is reported as 65 % of baseline. In addition, in the data set on LPS model of cachexia [1] (ICV), the “anti-cachectic activity after ICV administration” value is on record as “equivalent to TCMCB01”. Moreover, in the data set with LPS model of cachexia [1] (gavage (intra-gastric)), the “oral activity / gastrointestinal transport” value was “did not have oral activity; also recorded: had no oral activity”. Further, the “peripheral (IP) anti-cachexia activity / blood-brain barrier transport” value in the data set with LPS model of cachexia [1] (peripheral administration) is on record as “has peripheral activity, significantly reversing LPS-induced cachexia; also recorded: produced anti-cachexia following peripheral administration”. The “anti-cachectic activity relative to the parent compound” value in the data set with LPS model of cachexia [1] (rat, in vivo) was 10 fold. The “behavior (lethargy)” value in the data set on Lewis sarcoma rat is given as “restored “normal” behavior to rats”.

In the case of “AGRP: natural melanocortin system inhibitor; naturally occurring melanocortin antagonist protein (SSRRCVRLHESCLGQQVPCCDPCATCYCRFFNAFCYCRKLGTAMNPCSRT; ends and bridges not checked; cysteine pairing not given here; UniProt O00253 83-132, looked up)”, in the data set with Lewis sarcoma rat model [2], the “reversal of feeding / cachexia-anorexia syndrome in cachexia models” value is listed as 100%.

Turning to “Ac-NLe-c[Asp-Pro-DNal(2′)-Arg-Trp-Lys]-Pro-Val-NH2 (Ac-[Nle]DP[d2Nal]RWKPV-NH2; lactam 2-7) [PG-932]”, in the data set with LPS model of cachexia [3], the peripheral activity result is given as “active peripherally”. Moreover, in data set [4], the “Duration” value is given as 4 ± 3 min, the “Peak Heart Rate Response (BPM)” value was found to be 13 ± 09 BPM and the “Peak MAP Response (Δ mm Hg)” value amounted to 5 ± 3 mm Hg.

Take “Ac-Nle-c[Asp-His-DNal(2′)-Arg-Trp-Lys]-NH2 [SHU9119]”: the reversal of anorexia result with Lewis sarcoma rat model [5] is “about 70 % of that observed with AGRP”. For the same compound, in data set [6], the “Peak Heart Rate Response (BPM)” value is 16 ± 5/3 ± 14 BPM and the “Peak MAP Response (Δ mm Hg)” value was 16 ± 5/3 ± 14 mm Hg.
